From patent EP2140864A2 (H. Lundbeck A/S, priority 2001, dated 2002)

The compounds below were run against T1, human GAL3 receptor (Homo sapiens, UniProt O60755) (assay: Radioligand binding at cloned human GAL3 receptor). Conditions: indolones, cloned human receptor; read-out: Ki GalR3.
T1 construct: expressed in transfected cells
T1 sequence (O60755 1-368): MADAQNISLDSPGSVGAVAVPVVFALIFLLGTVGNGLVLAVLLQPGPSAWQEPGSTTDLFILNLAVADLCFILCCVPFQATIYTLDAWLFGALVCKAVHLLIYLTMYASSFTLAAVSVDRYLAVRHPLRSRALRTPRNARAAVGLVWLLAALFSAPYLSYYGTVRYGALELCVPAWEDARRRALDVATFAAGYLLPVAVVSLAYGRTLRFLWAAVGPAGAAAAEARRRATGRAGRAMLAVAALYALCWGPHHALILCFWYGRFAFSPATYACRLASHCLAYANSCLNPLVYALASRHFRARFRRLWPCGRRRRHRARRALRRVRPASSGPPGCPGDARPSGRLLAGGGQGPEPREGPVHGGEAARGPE
Protocol: The present invention provides for a method of determining the binding affinity of a GAL3 antagonist, wherein the GAL3 antagonist is dissolved in a "suitable solvent". A "suitable solvent" means one which permits the measurement of binding affinity of the GAL3 antagonist to the human GAL3 receptor at concentrations less than 1 µM, preferably less than 100 nM. Examples of solvents include, but are not limited to, DMSO, ethanol, N,N-dimethylacetamide, or water. For indolones, the preferred solvent is 3% DMSO (final concentration in the assay). For pyrimidines, the preferred solvent is 1% ethanol/0.09% polypuronic acid F-127 (final concentration in the assay). For any other type of compounds, the preferred solvent is the solvent which permits the measurement of binding affinity of a GAL3 antagonist at the lowest concentration. Once a suitable solvent is ascertained for the binding assay of the human GAL3 receptor, the same solvent is used in assays to determine the binding affinity at the GAL1 receptor, the serotonin transporter, the norepinephrine transporter, and the dopamine transporter. A solvent of 0.4% DMSO is used in the central monoamine oxidase enzyme assay.
The binding properties of the pyrimidines of the present invention were evaluated at the cloned human galanin receptors, GAL1, GAL2, and GAL3, using protocols described herein.
The binding properties of the indolones of the present invention were evaluated at the cloned human galanin receptors, GAL1, GAL2, and GAL3, using protocols described herein.
LM(tk-) cells were stably transfected with the human GAL1 or GAL3 receptor. CHO cells were stably transfected with the human GAL2 receptor.
cDNAs for the human and rat GAL1, and human and rat GAL3 receptors were transfected with a G-418 resistant gene into the mouse fibroblast LM(tk-) cell line by a calcium phosphate transfection method (Cullen, 1987). Stably transfected cells were selected with G-418. Human and rat GAL2 receptors were similarly transfected into CHO cells.
Membranes were harvested from stably transfected LM(tk-) cells. Adherent cells were washed twice in ice-cold phosphate buffered saline (138 mM NaCl, 8.1 mM Na2HPO4, 2.5 mM KCl, 1.2 mM KH2PO4, 0.9 mM CaCl2, 0.5 mM MgCl2, pH 7.4) and lysed by sonication in ice-cold sonication buffer (20 mM Tris-HCl, 5 mM EDTA, pH 7.7). Large particles and debris were cleared by low speed centrifugation (200 x g, 5 min, 4°C). Membranes were collected from the supernatant fraction by centrifugation (32,000 x g, 18 min, 4°C), washed with ice-cold hypotonic buffer, and collected again by centrifugation (32,000 x g, 18 min, 4°C). The final membrane pellet was resuspended by sonication into a small volume of ice-cold binding buffer (-1 ml for every 5 plates: 10 mM NaCl, 20 mM HEPES, 0.22 mM KH2PO4, 1.26 mM CaCl2, 0.81 mM MgSO4, pH 7.4). Protein concentration was measured by the Bradford method (Bradford, 1976) using Bio-Rad Reagent, with bovine serum albumin as a standard. Membranes were held on ice for up to one hour and used fresh, or flash frozen and stored in liquid nitrogen. Membranes were prepared similarly from CHO cells.
Galanin Recentors: Binding assays were performed according to the following published methods: human GAL3 (PCT International Publication No. WO 98/15570), human GAL1 (PCT International Publication No. WO 95/2260), human GAL2 (PCT International Publication No. WO 97/26853).
Binding data were analyzed using nonlinear regression and statistical techniques available in the GraphPAD Prism package (San Diego, CA). Enzymatic assay data were derived from a standard curve of reference compound data.

Ki	Structure (SMILES)
55 nM	Cc1cc(/N=C2\C(=O)N(c3ccsc3)c3ccccc32)ccc1Cl [Example 259]
214 nM	COc1ccc2c(c1)N(c1ccccc1)C(=O)/C2=N\c1cccc(C(F)(F)F)c1 [Example 303, (3Z)-6-METHOXY-1-PHENYL-3-{[3-(TRIFLUOROMETHYL)PHENYL]IMINO}-1,3-DIHYDRO-2H-INDOL-2-ONE]
569 nM	Cc1nc2cc(N=C3C(=O)N(c4ccccc4)c4ccccc43)ccc2s1 (mixture of isomers) [Example 114, 3-[(2-METHYL-1,3-BENZOTHIAZOL-5-YL)IMINO]-1-PHENYL-1,3-DIHYDRO-2H-INDOL-2-ONE]
114 nM	Cc1cccc(/N=C2\C(=O)N(c3ccsc3)c3ccccc32)c1 [Example 271]
84 nM	O=C1C(=Nc2cccc(C(F)(F)F)c2)c2ccccc2N1Cc1ccc(Cl)s1 (mixture of isomers) [Example 108, 1-[(5-CHLORO-2-THIENYL)METHYL]-3-{[3-(TRIFLUOROMETHYL)PHENYL]IMINO}-1,3-DIHYDRO-2H-INDOL-2-ONE]
46 nM	O=C1/C(=N\c2ccc(I)cc2)c2ccccc2N1c1ccsc1 [Example 262, (3Z)-3-[(4-IODOPHENYL)IMINO]-1-(3-THIENYL)-1,3-DIHYDRO-2H-INDOL-2-ONE]
33 nM	O=C1/C(=N\c2ccc(Cl)c(Cl)c2)c2ccccc2N1c1cc(Cl)cc(Cl)c1 [Example 257, (3Z)-1-(3,5-DICHLOROPHENYL)-3-[(3,4-DICHLOROPHENYL)IMINO]-1,3-DIHYDRO-2H-INDOL-2-ONE]
234 nM	O=C1/C(=N\c2ccc(Cl)nc2)c2ccccc2N1c1ccsc1 [Example 267]
742 nM	O=C1/C(=N\c2cccc(C(F)(F)F)c2)c2ccccc2N1C1CCOCC1 [Example 300, (3Z)-1-TETRAHYDRO-2H-PYRAN-4-YL-3-{[3-(TRIFLUOROMETHYL)PHENYL]IMINO}-1,3-DIHYDRO-2H-INDOL-2-ONE]
18 nM	O=C1/C(=N\c2ccc(Cl)c(Cl)c2)c2ccccc2N1c1cccc(C(F)(F)F)c1 [Example 256, (3Z)-3-[(3,4-DICHLOROPHENYL)IMINO]-1-[3-(TRIFLUOROMETHYL)PHENYL]-1,3-DIHYDRO-2H-INDOL-2-ONE]

Structure (SMILES)	Ki
O=C1/C(=N\c2cc(Cl)cc(Cl)c2)c2ccccc2N1Cc1ccccn1 [Example 274]	174 nM
O=C1/C(=N\c2ccc(F)c(F)c2)c2ccccc2N1Cc1cccnc1 [Example 276]	192 nM
O=C1/C(=N\c2ccc(Cl)c(Cl)c2)c2ccccc2N1Cc1cccnc1 [Example 311]	32 nM

Same assay, conditions: pyrimidines, cloned human receptor; read-out: Ki GalR3

Structure (SMILES)	Ki
CN(C)c1cccc(Nc2cc(N(C)C)nc(N3CCN(Cc4ccccc4)CC3)n2)c1 [Example 126]	99 nM
CN(C)c1cc(Nc2cc(F)c(F)c(F)c2)nc(N2CCN(c3ccccn3)CC2)n1 [Example 221]	213 nM
CN(C)c1cc(NC23CC4CC(CC(C4)C2)C3)nc(N2CCN(Cc3ccccc3)CC2)n1 [Example 138]	52 nM
COc1cccc(Nc2cc(N(C)C)nc(N3CCN(Cc4cccs4)CC3)n2)c1 [Example 165]	139 nM
Cc1ccc(Nc2nc(Nc3cccc(C)c3)cc(N(C)C)n2)cc1 [Example 53]	980 nM
Cc1ccc(Nc2cc(N(C)C)nc(NCCc3cccs3)n2)cc1 [Example 237]	404 nM
COc1cc(Nc2cc(N(C)C)nc(N3CCN(Cc4ccccc4)CC3)n2)cc(C(F)(F)F)c1 [Example 225]	66 nM
C[C@H]1[C@H](Nc2cc(N(C)C)nc(N3CCN(Cc4ccccc4)CC3)n2)C[C@@H]2C[C@@H]1C2(C)C [Example 139]	47 nM
CN(C)c1cc(NC2C3CC4CC(C3)CC2C4)nc(N2CCN(Cc3ccccc3)CC2)n1 (stereo not drawn) [Example 137]	124 nM
CN(C)c1cc(Nc2ccc(Br)cc2F)nc(N2CCN(c3ccccn3)CC2)n1 [Example 199]	199 nM
CN(C)c1cc(Nc2ccccc2Cc2ccccc2)nc(N2CCN(c3ccccn3)CC2)n1 [Example 186]	69 nM
CN(C)c1cc(Nc2ccc(C(F)(F)F)cc2)nc(N2CCN(Cc3ccccc3)CC2)n1 [Example 229]	37 nM
Cc1ccc(Nc2cc(N(C)C)nc(N3CCN(Cc4ccccc4)CC3)n2)cc1 [Example 253]	49 nM
CN(C)c1cc(NC2CCCCCC2)nc(N2CCN(Cc3ccccc3)CC2)n1 [Example 128]	249 nM
CN(C)c1cc(Nc2ccc3ccccc3c2)nc(Nc2ccccc2)n1 [Example 65]	329 nM
COc1cccc(CN2CCN(c3nc(Nc4cccc(OC)c4)cc(N(C)C)n3)CC2)c1 [Example 148]	276 nM
CC1CCC(Nc2cc(N(C)C)nc(N3CCN(Cc4ccccc4)CC3)n2)CC1 (stereo not drawn) [Example 157]	273 nM
Cc1ccccc1Nc1cc(N(C)C)nc(Nc2ccccc2)n1 [Example 51]	987 nM
CCOc1cccc(Nc2cc(N(C)C)nc(N3CCN(c4ccccn4)CC3)n2)c1 [Example 135]	100 nM

Structure (SMILES)	Ki
CN(C)c1cc(Nc2ccc(Cl)c(Cl)c2)nc(N2CCN(c3ccccn3)CC2)n1 [Example 124]	36 nM
COc1ccc(OC)c(Nc2cc(N(C)C)nc(N3CCN(Cc4ccccc4)CC3)n2)c1 [Example 227]	600 nM
COc1cccc(Nc2cc(N(C)C)nc(N3CCN(Cc4ccncc4)CC3)n2)c1 [Example 147]	640 nM
Cc1ccc(Nc2cc(N(C)C)nc(N3CCN(c4cccc(C)c4)CC3)n2)cc1 [Example 86]	227 nM
CCC(C)c1ccc(Nc2cc(N(C)C)nc(N3CCN(c4ccccn4)CC3)n2)cc1 (stereo not drawn) [Example 211]	58 nM
Cc1cccc(Nc2cc(N(C)C)nc(N3CCN(c4ccccn4)CC3)n2)c1C [Example 215]	450 nM
CN(C)c1cc(NC2CCCCC2)nc(Nc2ccccc2)n1 [Example 66]	699 nM
CN(C)c1cc(Nc2ccc(OCc3ccccc3)cc2)nc(N2CCN(c3ccccn3)CC2)n1 [Example 117]	61 nM
COc1cccc(Nc2cc(N(C)C)nc(N(C)CCc3ccccn3)n2)c1 [Example 177]	142 nM
CN(C)c1cc(Nc2cncc3ccccc23)nc(N2CCN(c3ccccn3)CC2)n1 [Example 120]	664 nM
COc1cc(Nc2cc(N(C)C)nc(N3CCN(c4ccccn4)CC3)n2)cc(C(F)(F)F)c1 [Example 197]	666 nM
Cc1ccc(Nc2cc(N(C)C)nc(N3CCN(c4ccc(C(N)=O)cn4)CC3)n2)cc1 [Example 141, 6-{4-[4-(DIMETHYLAMINO)-6-(4-TOLUDINO)-2-PYRIMIDINYL] -1-PIPERAZINYL}NICOTINAMIDE]	509 nM
CN(C)c1cc(Nc2cccc(OCc3ccccc3)c2)nc(N2CCN(c3cnccn3)CC2)n1 [Example 179]	15 nM
CN(C)c1cc(Nc2cccc(OC(F)(F)F)c2)nc(N2CCN(c3ccccn3)CC2)n1 [Example 207]	58 nM
Cc1ccc(Nc2cc(N3CCCCC3)nc(N3CCN(c4cccc(C(F)(F)F)n4)CC3)n2)cc1 [Example 33]	181 nM
Cc1ccc(Nc2cc(N(C)C)nc(NCCc3ccccc3)n2)cc1 [Example 250]	119 nM
Cc1ccc(Nc2cc(N(C)C)nc(N3CCN(CCc4ccccc4)CC3)n2)cc1 [Example 159]	180 nM
Cc1ccc(Nc2cc(N3CCCCC3)nc(Nc3ccc(C)cc3)n2)cc1 [Example 4]	627 nM
COCCN(CCOC)c1nc(Nc2ccc(C)cc2)cc(N2CCCCC2)n1 [Example 45]	505 nM
